Experiment: xn = mol fraction of the nth substance listed
Details: Liquid; for binary diffusion coefficient: Open capillary; for mass density: Pycnometric method

CCCCCC[N+]1(C)CCCC1.O=S(=O)([N-]S(=O)(=O)C(F)(F)F)C(F)(F)F + O=C=O
Details | binary diffusion coefficient [m2/s] | mass density [kg/m3]
298.15 K, 100 kPa, x2 = 0.2 | 1.6e-10 | –
298.15 K, 1000 kPa, x2 = 0.2 | 2.4e-10 | –
298.15 K, 1004 kPa, x2 = 0.236 | – | 1360
298.15 K, 2000 kPa, x2 = 0.2 | 4e-10 | –
298.15 K, 2030 kPa, x2 = 0.403 | – | 1354
298.15 K, 2493 kPa, x2 = 0.484 | – | 1343
298.15 K, 3003 kPa, x2 = 0.531 | – | 1345
298.15 K, 3496 kPa, x2 = 0.577 | – | 1336
298.15 K, 3999 kPa, x2 = 0.614 | – | 1324
298.15 K, 4496 kPa, x2 = 0.653 | – | 1308
298.15 K, 4998 kPa, x2 = 0.683 | – | 1299
298.15 K, 5521 kPa, x2 = 0.716 | – | 1294
298.15 K, 5995 kPa, x2 = 0.738 | – | 1281
298.15 K, 6387 kPa, x2 = 0.751 | – | 1263
318.15 K, 1005 kPa, x2 = 0.179 | – | 1346
318.15 K, 2021 kPa, x2 = 0.315 | – | 1332
318.15 K, 2513 kPa, x2 = 0.366 | – | 1315
318.15 K, 2996 kPa, x2 = 0.416 | – | 1323
318.15 K, 4039 kPa, x2 = 0.515 | – | 1311
318.15 K, 6032 kPa, x2 = 0.632 | – | 1301
318.15 K, 7998 kPa, x2 = 0.72 | – | 1291
318.15 K, 9884 kPa, x2 = 0.783 | – | 1345
318.2 K, 100 kPa, x2 = 0.15 | 2.3e-10 | –
318.2 K, 1000 kPa, x2 = 0.15 | 3.8e-10 | –
318.2 K, 1800 kPa, x2 = 0.15 | 3.8e-10 | –
338.15 K, 1001 kPa, x2 = 0.118 | – | 1307
338.15 K, 2028 kPa, x2 = 0.264 | – | 1315
338.15 K, 2537 kPa, x2 = 0.293 | – | 1311
338.15 K, 3030 kPa, x2 = 0.346 | – | 1310
338.15 K, 4022 kPa, x2 = 0.443 | – | 1313
338.15 K, 5027 kPa, x2 = 0.508 | – | 1311
338.15 K, 6014 kPa, x2 = 0.561 | – | 1307
338.15 K, 7501 kPa, x2 = 0.637 | – | 1310
338.15 K, 10006 kPa, x2 = 0.706 | – | 1319
338.15 K, 12478 kPa, x2 = 0.752 | – | 1325
338.15 K, 14944 kPa, x2 = 0.771 | – | 1341

From the NIST ThermoML archive (doi:10.1021/acs.jced.8b01236)
